Data reported in PubChem BioAssay AID1963843 (Molecular Pharmacology Branch, DTP, NCI, 2024).
pIC50: −log10 of the molar value.

Test system: 616215-338-R-J1-PDC complex spheroid viability
Assay: Anticancer human tumor 616215-338-R-J1-PDC patient-derived colon adenocarcinoma cell line growth inhibition [POLQ]
Conditions: for pIC50: curve of first compound; for viability, T/C: stronger effect = lower value
Procedure, shortened: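 Complex spheroid viability model combining PDC tumour cells with endothelial (HUVEC) and MSC stromal cells. Novobiocin, ART-558 or RP6685 were tested singly and in combination with standard and investigational anticancer drugs. Each was titrated in half-log steps from near clinical Cmax, or from 10 microM where Cmax was unknown.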

[1] = second compound 0.0316 µM, first compound 0.0316 µM
[2] = second compound 0.0316 µM, first compound 0.1 µM
[3] = second compound 0.0316 µM, first compound 0.316 µM
[4] = second compound 0.0316 µM, first compound 1 µM
[5] = second compound 0.0316 µM, first compound 3.16 µM
[6] = second compound 0.0316 µM, first compound 10 µM
[7] = second compound 0.1 µM, first compound 0.0316 µM
[8] = second compound 0.1 µM, first compound 0.1 µM
[9] = second compound 0.1 µM, first compound 0.316 µM
[10] = second compound 0.1 µM, first compound 1 µM
[11] = second compound 0.1 µM, first compound 3.16 µM
[12] = second compound 0.1 µM, first compound 10 µM
[13] = second compound 0.316 µM, first compound 0.0316 µM
[14] = second compound 0.316 µM, first compound 0.1 µM
[15] = second compound 0.316 µM, first compound 0.316 µM
[16] = second compound 0.316 µM, first compound 1 µM
[17] = second compound 0.316 µM, first compound 3.16 µM
[18] = second compound 0.316 µM, first compound 10 µM
[19] = second compound 1 µM, first compound 0.0316 µM
[20] = second compound 1 µM, first compound 0.1 µM
[21] = second compound 1 µM, first compound 0.316 µM
[22] = second compound 1 µM, first compound 1 µM
[23] = second compound 1 µM, first compound 3.16 µM
[24] = second compound 1 µM, first compound 10 µM
[25] = second compound 3.16 µM, first compound 0.0316 µM
[26] = second compound 3.16 µM, first compound 0.1 µM
[27] = second compound 3.16 µM, first compound 0.316 µM
[28] = second compound 3.16 µM, first compound 1 µM
[29] = second compound 3.16 µM, first compound 3.16 µM
[30] = second compound 3.16 µM, first compound 10 µM
[31] = second compound 10 µM, first compound 0.0316 µM
[32] = second compound 10 µM, first compound 0.1 µM
[33] = second compound 10 µM, first compound 0.316 µM
[34] = second compound 10 µM, first compound 1 µM
[35] = second compound 10 µM, first compound 3.16 µM
[36] = second compound 10 µM, first compound 10 µM
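Note: spheroids exposed to compounds for one week before readout.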
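Throughout, for viability, T/C: percent viability relative to DMSO vehicle wells taken as 100%.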

SMILES: C#Cc1c(F)ccc2cc(O)cc(-c3ncc4c(N5CC6CCC(C5)N6)nc(OCC56CCCN5CC(F)C6)nc4c3F)c12 (stereo unspecified) + COC1C(OC(N)=O)C(O)C(Oc2ccc3c(O)c(NC(=O)c4ccc(O)c(CC=C(C)C)c4)c(=O)oc3c2C)OC1(C)C
- pIC50 (second compound 0.0316 µM): < 5.00
- pIC50 (second compound 0.1 µM): < 5.00
- pIC50 (second compound 0.316 µM): < 5.00
- pIC50 (second compound 1 µM): < 5.00
- pIC50 (second compound 3.16 µM): < 5.00
- pIC50 (second compound 10 µM): < 5.00
- viability, T/C [1]: 108%
- viability, T/C [2]: 109%
- viability, T/C [3]: 101%
- viability, T/C [4]: 112%
- viability, T/C [5]: 113%
- viability, T/C [6]: 79.2%
- viability, T/C [7]: 103%
- viability, T/C [8]: 105%
- viability, T/C [9]: 98.2%
- viability, T/C [10]: 108%
- viability, T/C [11]: 95.8%
- viability, T/C [12]: 64.1%
- viability, T/C [13]: 110%
- viability, T/C [14]: 102%
- viability, T/C [15]: 110%
- viability, T/C [16]: 105%
- viability, T/C [17]: 103%
- viability, T/C [18]: 58.1%
- viability, T/C [19]: 105%
- viability, T/C [20]: 108%
- viability, T/C [21]: 109%
- viability, T/C [22]: 94.7%
- viability, T/C [23]: 103%
- viability, T/C [24]: 71.3%
- viability, T/C [25]: 105%
- viability, T/C [26]: 109%
- viability, T/C [27]: 103%
- viability, T/C [28]: 110%
- viability, T/C [29]: 104%
- viability, T/C [30]: 64%
- viability, T/C [31]: 94.5%
- viability, T/C [32]: 103%
- viability, T/C [33]: 109%
- viability, T/C [34]: 106%
- viability, T/C [35]: 100%
- viability, T/C [36]: 82.6%

SMILES: CCc1cc2c(N3CCc4c(cc(Cn5ccnc5)cc4-c4cn(C)nc4C(F)(F)F)C3=O)cc(C)nc2c(OC)n1 + COC1C(OC(N)=O)C(O)C(Oc2ccc3c(O)c(NC(=O)c4ccc(O)c(CC=C(C)C)c4)c(=O)oc3c2C)OC1(C)C
- pIC50 (second compound 0.0316 µM): 5.06
- pIC50 (second compound 0.1 µM): 5.04
- pIC50 (second compound 0.316 µM): 5.20
- pIC50 (second compound 1 µM): 5.07
- pIC50 (second compound 3.16 µM): 5.09
- pIC50 (second compound 10 µM): 5.03
- viability, T/C [1]: 101%
- viability, T/C [2]: 109%
- viability, T/C [3]: 109%
- viability, T/C [4]: 110%
- viability, T/C [5]: 60.5%
- viability, T/C [6]: 48.6%
- viability, T/C [7]: 106%
- viability, T/C [8]: 111%
- viability, T/C [9]: 99.5%
- viability, T/C [10]: 92.9%
- viability, T/C [11]: 64.6%
- viability, T/C [12]: 48.8%
- viability, T/C [13]: 106%
- viability, T/C [14]: 109%
- viability, T/C [15]: 99.7%
- viability, T/C [16]: 91%
- viability, T/C [17]: 59.8%
- viability, T/C [18]: 43.1%
- viability, T/C [19]: 113%
- viability, T/C [20]: 105%
- viability, T/C [21]: 104%
- viability, T/C [22]: 85.1%
- viability, T/C [23]: 57%
- viability, T/C [24]: 49.2%
- viability, T/C [25]: 113%
- viability, T/C [26]: 110%
- viability, T/C [27]: 102%
- viability, T/C [28]: 86.6%
- viability, T/C [29]: 76%
- viability, T/C [30]: 44.2%
- viability, T/C [31]: 115%
- viability, T/C [32]: 99.2%
- viability, T/C [33]: 95%
- viability, T/C [34]: 77.3%
- viability, T/C [35]: 53.8%
- viability, T/C [36]: 51.8%

SMILES: COc1cc2cc(C(=O)CCC(=O)O)sc2cc1OC + COC1C(OC(N)=O)C(O)C(Oc2ccc3c(O)c(NC(=O)c4ccc(O)c(CC=C(C)C)c4)c(=O)oc3c2C)OC1(C)C
- pIC50 (second compound 0.0316 µM): < 5.00
- pIC50 (second compound 0.1 µM): < 5.00
- pIC50 (second compound 0.316 µM): < 5.00
- pIC50 (second compound 1 µM): < 5.00
- pIC50 (second compound 3.16 µM): < 5.00
- pIC50 (second compound 10 µM): < 5.00
- viability, T/C [1]: 110%
- viability, T/C [2]: 103%
- viability, T/C [3]: 102%
- viability, T/C [4]: 105%
- viability, T/C [5]: 102%
- viability, T/C [6]: 113%
- viability, T/C [7]: 95.4%
- viability, T/C [8]: 101%
- viability, T/C [9]: 109%
- viability, T/C [10]: 97.7%
- viability, T/C [11]: 103%
- viability, T/C [12]: 97.2%
- viability, T/C [13]: 115%
- viability, T/C [14]: 94.9%
- viability, T/C [15]: 107%
- viability, T/C [16]: 95.1%
- viability, T/C [17]: 101%
- viability, T/C [18]: 101%
- viability, T/C [19]: 102%
- viability, T/C [20]: 88.2%
- viability, T/C [21]: 106%
- viability, T/C [22]: 98.7%
- viability, T/C [23]: 99.7%
- viability, T/C [24]: 106%
- viability, T/C [25]: 107%
- viability, T/C [26]: 99.9%
- viability, T/C [27]: 109%
- viability, T/C [28]: 102%
- viability, T/C [29]: 99.6%
- viability, T/C [30]: 113%
- viability, T/C [31]: 109%
- viability, T/C [32]: 91.7%
- viability, T/C [33]: 102%
- viability, T/C [34]: 104%
- viability, T/C [35]: 97%
- viability, T/C [36]: 102%
